This assay deals with Plasmodium berghei. As to the kind of experiment: Luciferase/luciferin-expressing antifolate-resistant parasites were used to infect a culture of HepG2 cells that were pre-incubated with compounds. Infected hepatocytes emit light due to the luciferase reaction. Assay results are presented as the percent inhibition of light emission compared to control. […]. It is filed as functional. The note with it: sporozoite; for IC90: read-out: LUCIFERASE INFECTION ASSAY - IC90.

Where [1] appears, read: read-out: LUCIFERASE INFECTION ASSAY - IC50.

The values below come from ChEMBL document CHEMBL4483862, “Open-source discovery of chemical leads for next-generation chemoprotective antimalarials” (2018).

The structures appear in SMILES notation.

With `Cc1ccc(-n2c(C)cc(C(=O)COC(=O)c3cccn3C)c2C)cc1`, the IC90 (usually the point of the concentration-response curve where the effect stands at 90%) was over 10 µM. The IC50 – broadly, the concentration that gives 50% inhibition – (PBLUC_HILL_SLOPE 1.64, PBLUC_R_SQUARED 0.0485, read-out: LUCIFERASE INFECTION ASSAY - IC50) was 5.54 µM.
Turning to `O=C(Cc1csc(-c2ccccc2Cl)n1)NCCCCOc1ccc(F)cc1`, the 90% effect concentration (IC90) is over 10 µM. For the same compound, where the note is “HEPG2TOX_HILL_SLOPE 9.37, HEPG2TOX_R_SQUARED 0.776, PBLUC_HILL_SLOPE 2.48, PBLUC_R_SQUARED 0.584, read-out: LUCIFERASE INFECTION ASSAY - IC50”, the IC50 was 5.48 µM.
Consider `CS(=O)(=O)c1ccc(C(=O)OC(C(=O)c2c[nH]c3ccccc23)c2ccccc2)cc1[N+](=O)[O-]` (configuration not stated), for which the IC90 was found to be 7.61 µM. Further, the IC50 (HEPG2TOX_HILL_SLOPE 12.6, HEPG2TOX_R_SQUARED 0.833, PBLUC_HILL_SLOPE 19.7, 53.6, PBLUC_R_SQUARED 0.857, 0.714, read-out: LUCIFERASE INFECTION ASSAY - IC50) was determined as 7.02 µM.
For the compound `CC(NC1CCCCCC1)C(=O)c1c[nH]c2ccccc12` (configuration not stated), the IC90 was over 10 µM. In addition, the IC50 under setting [1] is over 10 µM.
For the compound `COC(=O)c1c(NC(=O)CSc2nnc(-c3ccccc3Cl)n2C2CCCC2)sc(C)c1C`, the IC90 was over 10 µM. The IC50 (PBLUC_HILL_SLOPE 0.364, PBLUC_R_SQUARED 0.4, read-out: LUCIFERASE INFECTION ASSAY - IC50) is over 10 µM.
On to `O=C(O)c1cnc2cc3c(cc2c1O)OCCO3`, for which the IC90 was over 10 µM. Besides, under “PBLUC_HILL_SLOPE 2.36, 2.10, PBLUC_R_SQUARED 0.249, 0.136, read-out: LUCIFERASE INFECTION ASSAY - IC50”, the IC50 worked out at 7.92 µM.
With `COc1cc(NC(=O)c2sccc2Oc2ccc(C(F)(F)F)cc2[N+](=O)[O-])c(Cl)cc1Cl`, the IC90 was 5.34 µM. The IC50 (FFLUC_HILL_SLOPE 15.3, FFLUC_R_SQUARED 0.803, PBLUC_HILL_SLOPE 1.96, PBLUC_R_SQUARED 0.575, read-out: LUCIFERASE INFECTION ASSAY - IC50) turned out to be 1.74 µM.
Take `CC(c1ccccc1)N(C)C(=O)c1nn(-c2ccccc2)c2c1CCC2` (configuration not stated): the 90% effect concentration (IC90) is over 10 µM. In addition, the 50% inhibitory concentration (IC50) under setting [1] was over 10 µM.
As to `Clc1cccc(-c2cc3c(Nc4ccc5c(c4)OCCO5)nccc3[nH]2)c1`, the IC90 was over 10 µM. Under “HEPG2TOX_HILL_SLOPE 12.1, HEPG2TOX_R_SQUARED 0.71, PBLUC_HILL_SLOPE 1.15, PBLUC_R_SQUARED 0.766, read-out: LUCIFERASE INFECTION ASSAY - IC50”, the half-maximal inhibitory concentration (IC50) was found to be 1.75 µM.
As for `Cc1ccc(C)c(C(=O)C(C)Sc2nnc(-c3cccc(Br)c3)o2)c1` (configuration not stated), the IC90 was found to be 9.4 µM. The IC50 (HEPG2TOX_HILL_SLOPE 2.02, HEPG2TOX_R_SQUARED 0.871, PBLUC_HILL_SLOPE 4.17, 0.287, PBLUC_R_SQUARED 0.527, 0.262, read-out: LUCIFERASE INFECTION ASSAY - IC50) is 4.21 µM.
Regarding `CCOc1ccc2ccccc2c1/C=C/c1ccc2cccc(O)c2n1`, the IC90 turned out to be 3.84 µM. The IC50 (HEPG2TOX_HILL_SLOPE 14.8, HEPG2TOX_R_SQUARED 0.407, PBLUC_HILL_SLOPE 11.5, PBLUC_R_SQUARED 0.372, read-out: LUCIFERASE INFECTION ASSAY - IC50) is 3.17 µM.
For the compound `CCOc1ccc(OCC)c(NC(=O)/C=C/c2ccc(OCc3cn4ccccc4n3)cc2)c1`, the IC90 was over 10 µM. For the same compound, the 50% inhibitory concentration (IC50) (PBLUC_HILL_SLOPE 4.17, PBLUC_R_SQUARED 0.3, read-out: LUCIFERASE INFECTION ASSAY - IC50) came to 8.87 µM.
As to `O=C(NNC(=O)c1sccc1OCc1ncc(C(F)(F)F)cc1Cl)c1ccccc1`, the IC90 is over 7.24 µM. In addition, the IC50 (PBLUC_HILL_SLOPE 1.3, PBLUC_R_SQUARED 0.614, read-out: LUCIFERASE INFECTION ASSAY - IC50) turned out to be 4.13 µM.
On to `COc1ccccc1/C=C(/C(=O)OCc1cc(=O)n2cc(C)ccc2n1)c1ccccc1`, for which the concentration for an effect of 90% (IC90) was over 10 µM. In addition, the concentration for half-maximal inhibition (IC50) (PBLUC_HILL_SLOPE 4.19, PBLUC_R_SQUARED 0.0967, read-out: LUCIFERASE INFECTION ASSAY - IC50) came out at 6.55 µM.
`O=C1c2cc(Br)ccc2S(=O)(=O)N1CC(c1ccco1)N1CCCC1` (configuration not stated): the IC90 is over 10 µM. Further, the IC50 under setting [1] is over 10 µM.
Consider `CCOC(=O)C1CCCN(CC(=O)N2N=C3/C(=C/c4ccc(Cl)cc4)CCCC3C2c2ccc(Cl)cc2)C1` (configuration not stated), for which the IC90 is over 10 µM. For the same compound, the IC50 (PBLUC_HILL_SLOPE 9.1, PBLUC_R_SQUARED 0.32, read-out: LUCIFERASE INFECTION ASSAY - IC50) turned out to be 7.93 µM.
Consider `c1ccc(-c2cc3c(Oc4cccc5ccccc45)ncnc3s2)cc1`, for which the IC90 was over 10 µM. The IC50 (FFLUC_HILL_SLOPE 2.93, FFLUC_R_SQUARED 0.065, PBLUC_HILL_SLOPE 1.19, PBLUC_R_SQUARED 0.417, read-out: LUCIFERASE INFECTION ASSAY - IC50) was found to be 2.85 µM.
As to `CCCSc1ccc2c3c(cccc13)C(=O)N(CCc1ccccn1)C2=O`, the IC90 is over 8.77 µM. Moreover, under setting [1], the IC50 is over 8.77 µM.
For the compound `c1nc(NCC2(N3CCOCC3)CCCCC2)c2ccsc2n1`, the IC90 is over 10 µM. The IC50 under setting [1] was over 10 µM.
For the compound `COCCNCCOc1ccc(OCc2ccccc2)cc1`, the concentration for an effect of 90% (IC90) was over 10.9 µM. Under setting [1], the concentration for half-maximal inhibition (IC50) is over 10.9 µM.
Regarding `COc1ccc(-c2cncc(-c3ccc(O)c(OC)c3)n2)cc1`, the 90% effect concentration (IC90) is 0.463 µM. In addition, the IC50 (HEPG2TOX_HILL_SLOPE 11.5, HEPG2TOX_R_SQUARED 0.964, PBLUC_HILL_SLOPE 4.2, PBLUC_R_SQUARED 0.828, read-out: LUCIFERASE INFECTION ASSAY - IC50) was 0.274 µM.
As to `COc1ccc(-c2nnc(Nc3ccc4c(c3)c(=O)n(C)n4CC=C(C)C)[nH]2)cc1`, the 90% effect concentration (IC90) is over 8.16 µM. Moreover, the IC50 under setting [1] is over 8.16 µM.
On to `COc1cc(OC)cc(C(=O)NNC(=O)CCC(=O)c2ccc(Cl)s2)c1`, for which the IC90 is over 10 µM. Further, the 50% inhibitory concentration (IC50) under setting [1] was over 10 µM.
Regarding `O=C(NCCSCc1ccc(Cl)cc1Cl)c1cccs1`, the IC90 was determined as 3.51 µM. Besides, the IC50 (HEPG2TOX_HILL_SLOPE 0.0561, HEPG2TOX_R_SQUARED 0.0467, PBLUC_HILL_SLOPE 2.24, PBLUC_R_SQUARED 0.817, read-out: LUCIFERASE INFECTION ASSAY - IC50) came out at 1.32 µM.
Take `CC(C)c1ccc(C2C3CCc4ccccc4C3=NN2C)cc1` (configuration not stated): the IC90 came out at 0.553 µM. Moreover, the IC50 under setting [1] turned out to be 0.0716 µM.
For `CC(=O)Nc1cccc(-c2cnc3ccc(-c4cccs4)nn23)c1`, the IC90 came to 3.37 µM. Besides, under “HEPG2TOX_HILL_SLOPE 0.814, HEPG2TOX_R_SQUARED 0.982, PBLUC_HILL_SLOPE 1.1, PBLUC_R_SQUARED 0.75, read-out: LUCIFERASE INFECTION ASSAY - IC50”, the IC50 is 0.461 µM.
Turning to `CSc1ccc(Cl)c(C(=O)OCC(=O)N2CCN(C(=O)c3ccco3)CC2)c1`, the IC90 is over 10 µM. Also, the half-maximal inhibitory concentration (IC50) under setting [1] is over 10 µM.
For the compound `Cc1sc2ncnc(NC(C)c3ccc(S(C)(=O)=O)cc3)c2c1C` (configuration not stated), the IC90 is over 10 µM. The IC50 (HEPG2TOX_HILL_SLOPE 5.66, HEPG2TOX_R_SQUARED 0.483, PBLUC_HILL_SLOPE 1.68, PBLUC_R_SQUARED 0.334, read-out: LUCIFERASE INFECTION ASSAY - IC50) worked out at 6.13 µM.
For `N#Cc1ccc(-c2csc(CS(=O)(=O)Cc3cccc(C(F)(F)F)c3)n2)cc1`, the IC90 is over 7.81 µM. Besides, the half-maximal inhibitory concentration (IC50) under setting [1] is over 7.81 µM.
Take `CCN1C(=O)N(C2Cc3ccccc3C2)C(=O)C12CCN(Cc1cc3ccccc3[nH]1)CC2`: the IC90 is over 7.46 µM. In addition, the 50% inhibitory concentration (IC50) (HEPG2TOX_HILL_SLOPE 3.47, HEPG2TOX_R_SQUARED 0.984, PBLUC_HILL_SLOPE 2.65, PBLUC_R_SQUARED 0.483, read-out: LUCIFERASE INFECTION ASSAY - IC50) worked out at 3.77 µM.
With `Nc1c(C(=O)N2CCOCC2)sc2nc3c(cc12)CCCCC3`, the IC90 was 0.424 µM. Moreover, the IC50 (FFLUC_HILL_SLOPE 2.88, FFLUC_R_SQUARED 0.736, PBLUC_HILL_SLOPE 1.46, PBLUC_R_SQUARED 0.898, read-out: LUCIFERASE INFECTION ASSAY - IC50) is 0.0939 µM.
With `O=C(Nc1ccc(Br)c(C(F)(F)F)c1)c1ccc(N2CCOCC2)nc1`, the IC90 is over 10 µM. Where the note is “HEPG2TOX_HILL_SLOPE 0.861, HEPG2TOX_R_SQUARED 0.877, PBLUC_HILL_SLOPE 1.11, PBLUC_R_SQUARED 0.718, read-out: LUCIFERASE INFECTION ASSAY - IC50”, the 50% inhibitory concentration (IC50) amounted to 1.48 µM.
`CC(C#N)(NC(=O)CN1CCN(S(=O)(=O)c2ccc(Cl)s2)CC1)C1CC1` (configuration not stated): the IC90 was over 10 µM. Further, the IC50 (PBLUC_HILL_SLOPE 12.5, PBLUC_R_SQUARED 0.341, read-out: LUCIFERASE INFECTION ASSAY - IC50) worked out at 9.26 µM.
With `COc1cc(-c2ccc3ncc(-c4cccs4)n3n2)cc(OC)c1OC`, the IC90 is 4.08 µM. Moreover, the IC50 (HEPG2TOX_HILL_SLOPE 2.45, HEPG2TOX_R_SQUARED 0.958, PBLUC_HILL_SLOPE 3.17, PBLUC_R_SQUARED 0.64, read-out: LUCIFERASE INFECTION ASSAY - IC50) is 2.04 µM.
For the compound `O=C(Nc1nc2ccccc2[nH]1)c1ccccn1`, the IC90 is over 10 µM. Besides, the IC50 (FFLUC_HILL_SLOPE 12.7, FFLUC_R_SQUARED 0.6, read-out: LUCIFERASE INFECTION ASSAY - IC50) was over 10 µM.
For the compound `COC(=O)[C@@H](NC(=O)Nc1ccc(-c2nc3ccccc3s2)cc1)C(C)C`, the IC90 was over 8.61 µM. Further, the IC50 (FFLUC_HILL_SLOPE 0.533, FFLUC_R_SQUARED 0.87, PBLUC_HILL_SLOPE 0.528, PBLUC_R_SQUARED 0.783, read-out: LUCIFERASE INFECTION ASSAY - IC50) was 0.264 µM.
